Measured values from patent publication US20100298214A1, “TREATMENT OF AUTOIMMUNE DISEASE” (MASSACHUSETTS INSTITUTE OF TECHNOLOGY, priority 2007, published 2010).

How the values were obtained:
[1] = test system: prediabetic NOD mice
Method: (§1) NOD mice were obtained from Taconic Farms. Female NOD mice were used in all the studies and monitored for diabetes by checking urine glucose levels at least two times per week, starting around 12 weeks of age. Mice were considered diabetic when urinary glucose level reached 500 mg/dl, as measured with Diastix (Bayer Diagnostics). […] BALB/c mice were purchased from Jackson Laboratory. EA16NOD mice were obtained from Drs. Diane Mathis and Christopher Benoist. Cxcr4^fif Lck-Cre mice and littermate Cxcr4^−if Lck-Cre were on the mixed 129/C57BL/6 background and were generated by breeding Cxcr4^+if Lck-Cre mice. All mice were kept under specific pathogen free facilities. For AMD3100 treatment, prediabetic NOD mice were given AMD3100 (5 mg/kg) subcutaneously daily for the indicated lengths of time. For analysis of T cell distribution, mice were sacrificed at 2 hours after the last AMD3100 injection.
Single-cell suspensions were prepared from the spleen, lymph nodes (e.g., superficial cervical, brachial, axillary, inguinal, mesenteric, and pancreas-draining lymph nodes), and bone marrow (e.g., obtained by flushing two femurs and two tibias with cold RPMI 1640 medium containing 5% fetal calf serum [FCS]). All staining antibodies were purchased from BDbioscience, except anti-Foxp3, lineage markers (Lin), and c-Kit and Sea-1, which were from E-bioscience, Stem Cell Technologies, and Biolegend, respectively. Cells were stained in the presence of 2.5 μg/ml anti-FcR antibody in PBS containing 0.1% BSA and 0.1% NaN3 and analyzed on a FACScaliber or a LSR II or a FACSAria, collecting 10,000 to 1,000,000 live cells per sample. Analyses were carried out with Flowjo software. For analysis of LSK cells, 10% of total cells with low level of lineage marker expression were gated for further analysis of Sca-1 versus c-Kit expression profiles. Intracellular staining of Foxp3 and Ki67 was performed according to the manufacturer's instruction.
AMD3100 is a small molecule antagonist of CXCR4 (De Clercq, 2003, supra; incorporated herein by reference). […] Thus, prediabetic NOD mice were given AMD3100 (5 mg/kg) daily for 8 days, and the distribution and phenotype of T cells in their bone marrow were assayed.

[2] = test system: prediabetic NOD mice; conditions: daily for 8 days (FIGS. 8A and 8B)
Method: as §1

[3] = test system: NOD mice; test: Diabetes incidence monitored by urine glucose level; type: in vivo, mouse
From the text: NOD mice were obtained from Taconic Farms. […] BALB/c mice were purchased from Jackson Laboratory. EA16NOD mice were obtained from Drs. Diane Mathis and Christopher Benoist. […] All mice were kept under specific pathogen free facilities.
To test whether continuous AMD3100 treatment can inhibit the development of diabetes, prediabetic NOD mice (15 weeks of age) were given AMD3100 daily for 14 weeks. PBS-treated NOD mice started to show evidence of diabetes at 16 weeks of age, and by 29 weeks of age, all mice developed diabetes (FIG. 8D).

[4] = test system: sublethally irradiated male NOD mice; conditions: Aboumrad et al., 2007; cited from earlier work
[5] = biological target: T1, CXCR4 (Homo sapiens, UniProt P61073); conditions: induction of internalization after binding; Liu et al., 2004; cited from earlier work
T1 construct: endogenous in cells; host or cells: human peripheral mononuclear cells (PBMCs)

[6] = test system: NOD mice; conditions: cited from earlier work
[7] = treatment for 8 days (FIG. 10G)
[8] = treatment for 8 days (FIG. 10H)

T1 sequence (P61073 whole entry): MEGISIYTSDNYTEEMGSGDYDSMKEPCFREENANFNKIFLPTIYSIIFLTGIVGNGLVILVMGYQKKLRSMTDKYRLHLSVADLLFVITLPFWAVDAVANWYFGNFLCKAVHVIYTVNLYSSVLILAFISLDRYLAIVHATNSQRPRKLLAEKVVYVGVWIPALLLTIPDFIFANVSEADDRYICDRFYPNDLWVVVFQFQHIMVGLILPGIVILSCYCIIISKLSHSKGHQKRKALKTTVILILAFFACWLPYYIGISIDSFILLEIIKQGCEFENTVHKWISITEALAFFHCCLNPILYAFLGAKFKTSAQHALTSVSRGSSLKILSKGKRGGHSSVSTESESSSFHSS

Cl.Cl.Cl.Cl.Cl.Cl.Cl.Cl.O.O.c1cc(CN2CCCNCCNCCCNCC2)ccc1CN1CCCNCCNCCCNCC1 [AMD3100, 1,1′-[1,4-phenylenebis(methylene)]-bis-1,4,8,11-tetraazacyclotetradecane octahydrochloride dihydrate]
proportion of CD4 T cells with the naïve phenotype (CD45RB^hi CD44^lo) in bone marrow ([1]; 5 mg/kg daily for 8 days (FIG. 5B)): preferentially reduced | proportion of both CD4 and CD8 T cells in the bone marrow ([1]; 5 mg/kg daily for 8 days, compared to PBS (FIG. 5A)): significantly reduced | percentage of HSC in the bone marrow ([1]; 8 days, compared to PBS-treated NOD mice, p=0.06 (FIG. 10D)): reduced | percentage of T cells that proliferated in the spleen and pancreas-draining lymph nodes ([1]; AMD3100 treatment of NOD mice): did not significantly affect | distribution of NKT cells, dendritic cells, or B cells ([1]; NOD mice following AMD3100 treatment (FIG. 6)): nor any change | percentages (mean±SE) of CD45RB^hi CD44^lo naïve T cells among TCR+CD4+ cells ([1]; bone marrow, prediabetic NOD mice 15-16 weeks of age, daily for 8 days, n=4, p<0.01 vs PBS): 24.8±3.2% | NKT cell distribution in various organs ([1]; prediabetic NOD mice, 8 days (FIG. 6)): does not affect | number of HSCs (Lin-Sca1+c-Kit+) in the bone marrow ([1]; treatment for 8 days (FIG. 7C)): significantly reduced | percentage of Foxp3+CD4+ Treg cells in the bone marrow [1, 7]: increased | percentages of Tregs in the pancreas-draining lymph node (PDLN) [1, 7]: increased significantly | percentages of Tregs in the spleen [1, 7]: increased significantly | number of Tregs in the spleen [1, 8]: increased significantly | total number of Tregs in the bone marrow [1, 8]: decreased | lymphocyte infiltration into the islets (insulitis) ([2]; prediabetic NOD mice 15 weeks of age): significantly reduced | peri-insulitis ([2]; prediabetic NOD mice): without affecting | time after termination of treatment at which mice began to develop diabetes ([3]; after three weeks of daily treatment): two weeks | diabetes incidence after termination of treatment ([3]; by 26 weeks of age, three weeks of daily treatment, same level as PBS-treated mice): 70% | mice that developed diabetes during continuous treatment ([3]; daily for 14 weeks from 15 weeks of age, up to 29 weeks of age (FIG. 8D)): none | mice that developed diabetes during treatment ([3]; daily for three weeks from 15-16 weeks of age, period between 17 and 20 weeks of age (FIG. 8C)): none | diabetes development in the transfer model [4]: promotes

O=C1c2c(O)cc(O)cc2O[C@H](c2cc(O)c(O)c(O)c2)[C@H]1O [ampelopsin]
CXCR4 on the surface of human peripheral mononuclear cells (PBMCs) [5]: decrease

CXCL12: chemokine (C-X-C motif) ligand 12, administered systemically (Yano et al., 2007)
diabetes on systemic administration ([6]; Yano et al., 2007): ameliorates

G-CSF: granulocyte colony-stimulating factor, a known suppressor of CXCL12 expression
insulitis and diabetes ([6]; NOD mice, literature): reduced | onset of type I diabetes ([6]; NOD mice, literature): significantly delays
